The values below come from publication PMC9884089 (Journal of Medicinal Chemistry, 2023).

The target in one data set is T1, TNKS1 (Homo sapiens, UniProt O95271).
T1 sequence (O95271 1-1327): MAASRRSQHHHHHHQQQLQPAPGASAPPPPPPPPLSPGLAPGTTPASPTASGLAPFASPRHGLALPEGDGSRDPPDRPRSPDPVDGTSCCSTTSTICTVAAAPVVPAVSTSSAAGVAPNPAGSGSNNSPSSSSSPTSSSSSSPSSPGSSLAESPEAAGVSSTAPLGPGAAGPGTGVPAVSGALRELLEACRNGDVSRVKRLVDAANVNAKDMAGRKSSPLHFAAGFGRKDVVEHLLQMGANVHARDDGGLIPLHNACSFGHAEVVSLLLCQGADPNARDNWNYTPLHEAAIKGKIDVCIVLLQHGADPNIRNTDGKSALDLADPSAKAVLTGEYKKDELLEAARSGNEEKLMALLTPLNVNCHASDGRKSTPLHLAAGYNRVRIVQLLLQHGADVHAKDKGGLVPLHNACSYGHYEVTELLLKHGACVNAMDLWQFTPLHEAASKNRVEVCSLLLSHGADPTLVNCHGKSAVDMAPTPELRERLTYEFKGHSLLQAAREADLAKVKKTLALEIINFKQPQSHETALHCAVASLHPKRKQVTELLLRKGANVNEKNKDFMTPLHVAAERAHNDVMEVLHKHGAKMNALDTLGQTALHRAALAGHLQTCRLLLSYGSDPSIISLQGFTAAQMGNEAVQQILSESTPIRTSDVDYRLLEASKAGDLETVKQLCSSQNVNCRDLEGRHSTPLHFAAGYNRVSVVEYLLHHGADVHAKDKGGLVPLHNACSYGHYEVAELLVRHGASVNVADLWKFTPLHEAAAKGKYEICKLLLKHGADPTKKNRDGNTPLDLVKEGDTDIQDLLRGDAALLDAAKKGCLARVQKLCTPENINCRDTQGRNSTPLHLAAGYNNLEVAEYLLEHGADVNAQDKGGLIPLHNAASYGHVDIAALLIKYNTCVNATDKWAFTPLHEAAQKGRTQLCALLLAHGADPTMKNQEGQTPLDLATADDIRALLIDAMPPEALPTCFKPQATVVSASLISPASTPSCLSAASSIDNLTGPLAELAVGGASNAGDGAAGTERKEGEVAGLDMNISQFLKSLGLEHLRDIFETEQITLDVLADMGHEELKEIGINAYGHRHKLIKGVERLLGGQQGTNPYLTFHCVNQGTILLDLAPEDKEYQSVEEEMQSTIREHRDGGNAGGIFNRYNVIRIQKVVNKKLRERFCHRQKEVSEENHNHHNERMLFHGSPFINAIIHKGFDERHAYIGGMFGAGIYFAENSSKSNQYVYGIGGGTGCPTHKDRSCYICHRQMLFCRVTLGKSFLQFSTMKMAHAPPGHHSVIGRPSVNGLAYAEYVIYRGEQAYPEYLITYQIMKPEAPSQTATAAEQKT
Put plainly: PARP profiling activity assay, TNKS1. Type of data set: biochemical.

A further data set concerns the target T2, PARP10 (Homo sapiens, UniProt Q53GL7).
T2 construct: made in house
T2 sequence (Q53GL7 1-1025): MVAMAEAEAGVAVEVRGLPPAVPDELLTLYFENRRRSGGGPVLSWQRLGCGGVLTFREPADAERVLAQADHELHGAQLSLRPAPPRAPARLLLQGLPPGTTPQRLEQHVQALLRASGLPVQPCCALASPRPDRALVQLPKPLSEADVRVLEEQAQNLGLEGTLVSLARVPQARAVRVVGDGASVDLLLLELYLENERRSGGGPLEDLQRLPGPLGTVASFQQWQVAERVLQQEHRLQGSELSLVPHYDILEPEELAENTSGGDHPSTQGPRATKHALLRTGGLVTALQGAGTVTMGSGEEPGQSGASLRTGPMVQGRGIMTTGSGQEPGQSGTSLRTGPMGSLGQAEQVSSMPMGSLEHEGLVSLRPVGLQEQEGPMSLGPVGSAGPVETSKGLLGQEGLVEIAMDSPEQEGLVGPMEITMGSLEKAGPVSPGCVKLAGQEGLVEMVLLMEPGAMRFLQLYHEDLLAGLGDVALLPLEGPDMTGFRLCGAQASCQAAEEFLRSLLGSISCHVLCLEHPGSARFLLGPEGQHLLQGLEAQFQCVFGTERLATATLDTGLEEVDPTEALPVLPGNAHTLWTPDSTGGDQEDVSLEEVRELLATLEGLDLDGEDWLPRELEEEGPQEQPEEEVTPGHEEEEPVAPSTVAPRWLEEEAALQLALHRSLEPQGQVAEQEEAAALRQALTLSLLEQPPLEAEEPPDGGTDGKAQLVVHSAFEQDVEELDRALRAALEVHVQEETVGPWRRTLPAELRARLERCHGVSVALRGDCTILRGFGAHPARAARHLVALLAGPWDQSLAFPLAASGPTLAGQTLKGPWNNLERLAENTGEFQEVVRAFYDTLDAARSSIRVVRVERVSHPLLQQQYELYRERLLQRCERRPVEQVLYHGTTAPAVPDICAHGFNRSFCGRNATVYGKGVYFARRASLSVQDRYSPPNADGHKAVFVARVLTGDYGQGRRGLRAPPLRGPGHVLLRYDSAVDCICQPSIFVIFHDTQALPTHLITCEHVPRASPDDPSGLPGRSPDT
Kind of data set: Cellular MARylation assay (immunoblot of PARP10 auto-MARylation). The settings on record: 10 μM, 16 h, HeLa cells. Type of data set: cell-based. The procedure:
Cells were lysed in RIPA lysis buffer [10 mM Tris pH 7.4; 150 mM NaCl; 1% NP-40; 1% desoxycholate; 0,1% SDS; protease inhibitor cocktail (Sigma-Aldrich) and 10 μM olaparib (Selleck Chemicals)], and lysates were analyzed via SDS-PAGE and immunoblotting using specific anti-PARP10 (Eurogentec),[93] anti-MAR/PAR (Cell Signaling, E6F6A, anti-poly/Mono-ADP-ribose antibody), and anti-α-tubulin (B 5-1-2, Sigma-Aldrich) antibodies.
In general terms: A western blot detects proteins with antibodies after separation by electrophoresis.

Data set [1] in a line: Thermodynamic water solubility. It counts as physicochemical. The settings on record: distilled water, r.t. The method, then: Each solid compound (1 mg) was added to 1 mL of distilled water. Each sample was mixed at r.t. in a shaker water bath 24 h. The resulting suspension was filtered through a 0.45 μm nylon filter (Acrodisc), and the solubilized compound was quantified in triplicate using UV/LC–MS method reported above by comparison with the appropriate calibration curve that was obtained from samples of the compound dissolved in methanol at different concentrations.[94]

The next data set has as its target T3, PARP2 (Homo sapiens, UniProt Q9UGN5).
T3 construct: made in house
Kind of data set: biochemical. It counts as biochemical. The settings on record: > = less than 50% inhibition at highest concentration; ≫ = no inhibition; read-out: PARP2 IC50.

[2] abbreviates: read-out: water solubility (log s) (converted).

pIC50: −log10 of the molar value. Where two headings read alike, the source gives them in different places.

T3 sequence (Q9UGN5 whole entry): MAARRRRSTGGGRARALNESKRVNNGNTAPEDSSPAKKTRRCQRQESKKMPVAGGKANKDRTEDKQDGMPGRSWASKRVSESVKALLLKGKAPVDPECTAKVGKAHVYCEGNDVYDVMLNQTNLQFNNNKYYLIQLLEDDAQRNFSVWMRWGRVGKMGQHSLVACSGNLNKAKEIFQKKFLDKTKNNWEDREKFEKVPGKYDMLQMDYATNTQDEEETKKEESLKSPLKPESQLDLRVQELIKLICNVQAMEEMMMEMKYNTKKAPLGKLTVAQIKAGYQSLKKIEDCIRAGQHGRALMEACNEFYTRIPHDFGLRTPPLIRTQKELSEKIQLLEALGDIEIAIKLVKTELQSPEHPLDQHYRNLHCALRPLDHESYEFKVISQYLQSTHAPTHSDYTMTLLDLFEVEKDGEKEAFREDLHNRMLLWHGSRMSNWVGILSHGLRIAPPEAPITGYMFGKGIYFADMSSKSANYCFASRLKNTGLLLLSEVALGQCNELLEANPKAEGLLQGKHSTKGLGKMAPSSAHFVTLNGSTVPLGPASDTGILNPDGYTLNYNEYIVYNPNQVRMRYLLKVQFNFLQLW
Protocol for PARP2: Inhibition experiments were performed using a homogenous assay measuring NAD+ consumption.[80]−[82] Reactions were carried out in quadruplicate, and IC50 curves were fitted using sigmoidal dose response curve (four variables) in GraphPad Prism version 8.02. […] Assay conditions for PARP2, TNKS2, PARP10, and PARP15 (Tables 1–3) were recently reported.[44] The conditions for the proximity-enhanced mono-ART assays (Table 4) were also reported recently.[47] PARP6 (400 nM) inhibition was measured using the standard buffer (50 mM sodium phosphate pH 7.0) for the enhanced activity assay using 500 nM NAD^+ and 18 h incubation in r.t..
Protocol for TNKS1: Inhibition experiments were performed using a homogenous assay measuring NAD+ consumption.[80]−[82] Reactions were carried out in quadruplicate, and IC50 curves were fitted using sigmoidal dose response curve (four variables) in GraphPad Prism version 8.02.

Regarding `COc1ccc(OC)c2c1sc1nnc(N)n12` [Compound 27, 5,8-Dimethoxy[1,2,4]triazolo[3,4-b][1,3]benzothiazol-3-amine], the pIC50 (commonly −log10 of the IC50, conventionally taken in molar units) against TNKS1 is 5.27; on PARP2, 5.00. Besides, the “inhibition of auto-MARylation of overexpressed PARP10 in cells” value against PARP10 is recorded as “effectively inhibited”. Also, the solubility (usually the dissolved amount per volume that the medium holds) at 24 h is 12.6 µg/mL in data set [1] (read-out: water solubility) and 50.4 µM in data set [1] (setting [2]).

At TNKS1, `Cc1ccc2c(c1)sc1nnc(N)n12` [Compound 21, 7-Methyl[1,2,4]triazolo[3,4-b][1,3]benzothiazol-3-amine] gave a pIC50 of 5.68. Moreover, the “inhibition of auto-MARylation of overexpressed PARP10 in cells” value against PARP10 was “effectively inhibited”. The solubility at 24 h was 37.6 µg/mL in data set [1] (read-out: water solubility) and 184 µM in data set [1] (setting [2]).
